Test results as given in patent US20240150843A1, “METHODS AND MATERIALS FOR IDENTIFYING MYELOMA STAGE AND DRUG SENSITIVITY AND TREATING MYELOMA” (Mayo Foundation for Medical Education and Research, priority 2021, published 2024).

Assays:
JJN3 cells = test: MTT assay, PBK inhibitor alone or combined with lenalidomide or bortezomib; type: cell-based, human; details: JJN3 (IMiD resistant cell line)
Method: (§1) FIGS. 11A and 11B show MM cell growth and drug response after depletion of PRR11 using CRISPR-Cas9 technology or inhibition of PBK in HMCLs. (A) The lentivirus harboring non-targeting control (NS) and two PRR11 CRISPR gRNAs (#1 and #2) expressing cassette were used to infect two MM cell lines (JJN3 and […]). After confirming depletion of PRR11 in HMCLs by western blot (bottom), an MTT assay was performed to evaluate cell proliferation and drug response to lenalidomide or bortezomib in both control virus-transduced cells and cells with PRR11 depletion. Depletion of PRR11 neither changed MM cell proliferation nor affected lenalidomide and bortezomib sensitivity. (B) JJN3 and XG1LenRes, IMiD resistant cell lines, were treated with a PBK specific inhibitor, HI-TOPK-032 alone (Calbiochem) or combined with either lenalidomide (Len) or bortezomib (Bor) to evaluate synergy by the MTT assay. Inhibition of PBK activity using Hi-TOPK-032, enhanced both lenalidomide and bortezomib sensitivity in JJN3 and XG1LenRes cells.
(§2) Analysis of NM cell proliferation and drug response after modulating PRR11 expression and PBK1 activity: PRR11 and PBK1 expression also was associated with survival and drug response in the CoMMpass dataset. Using CRISPR-Cas9 technology, MM cell proliferation and drug response were investigated after depletion of PRR11. Briefly, the lentivirus harboring non-targeting control and two PRR11 CRISPR gRNA expressing cassettes were prepared and used to infect MM cell lines using methods described elsewhere (Ran et al., Nat Protoc 8(11):2281-2308, 2013; and Zhu et al., Cancer Res 77(16):4317-4327, 2017). After confirming depletion of PRR11 in HMCLs by western blot, an MTT assay was performed to evaluate cell proliferation and drug response to lenalidomide or bortezomib in both control virus-transduced cells and cells with PRR11 depletion. For PBK, JJN3 and XG1LenRes (IMiD resistant cell lines) were treated with a PBK specific inhibitor (HI-TOPK-032; Calbiochem; San Diego, CA) either alone or in combination with either lenalidomide or bortezomib to evaluate their effects by MTT assay.

XG1LenRes cells = test: as above; type: cell-based, human; details: XG1LenRes (IMiD resistant cell line)
Method: as §1, §2

N#Cc1c2nc3ccccc3nc2n2ccc(NC(=O)c3cccs3)cc12 [Hi-TOPK-032]
enhanced: bortezomib sensitivity (JJN3 cells; combined with bortezomib) | lenalidomide sensitivity (JJN3 cells; combined with lenalidomide) | bortezomib sensitivity (XG1LenRes cells; combined with bortezomib) | lenalidomide sensitivity (XG1LenRes cells; combined with lenalidomide)
